# Laboratory results: US6083955A, “Arylethenesulfonamide derivatives and drug composition containing the same” (Yamanouchi Pharmaceutical Co., Ltd., priority 1995, dated 2000)
# Where two headings read alike, the source gives them in different places.
# Experiments:
# [1] = test system: big ET-1-induced pressor responses; assay: Test on Inhibition of Big ET-1-induced Pressor Responses in Pithed Rats; type: in vivo, male Wistar rats; conditions: Rattus norvegicus, 0.5 h, read-out: DR2
# Method: (3) Test on Inhibition of Big ET-1-induced Pressor Responses in Pithed Rats
# Male Wistar rats (body weight: […]) were anesthetized by sodium pentobarbital (60 mg/kg, i.p.) and a cannula for artificial ventilation was inserted into a trachea. Spinal cord was broken by inserting a rod made of steel thereinto and then the rat was connected to an artificial respirator. A catheter for measuring the systemic arterial blood pressure was inserted into a carotid artery while another catheter for administering big ET-1 was inserted into a femoral vein. After 30 minutes from the oral administration of a test compound at doses of 0.1 to 10 mg/kg, the rat was pithed and then big ET-1 was intravenously administered at doses of 0.1 to 3.2 nmol/kg in a cumulative manner. Activity of the test compound was evaluated by the dose (DR2 value) whereby the dose-response curve of pressor responses by big ET-1 to the right hand direction to an extent of two-fold.
# [2] = target: T1, human ETA receptor (Homo sapiens, UniProt P25101); assay: Test on Inhibition of Binding of Endothelin (ET-1) to Human ETA Receptor
# T1 sequence (P25101 21-427): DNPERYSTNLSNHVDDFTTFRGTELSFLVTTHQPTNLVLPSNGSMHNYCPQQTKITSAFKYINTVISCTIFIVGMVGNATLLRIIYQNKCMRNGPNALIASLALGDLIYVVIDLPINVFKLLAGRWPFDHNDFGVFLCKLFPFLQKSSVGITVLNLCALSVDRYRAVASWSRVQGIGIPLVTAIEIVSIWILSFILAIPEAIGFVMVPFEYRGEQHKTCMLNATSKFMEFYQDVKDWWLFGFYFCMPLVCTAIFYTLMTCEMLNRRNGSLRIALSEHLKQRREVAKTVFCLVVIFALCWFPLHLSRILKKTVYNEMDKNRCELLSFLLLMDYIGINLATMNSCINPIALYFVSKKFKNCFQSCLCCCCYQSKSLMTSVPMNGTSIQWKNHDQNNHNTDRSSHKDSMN
# Method: (1) Test on Inhibition of Binding of Endothelin (ET-1) to Human ETA Receptor
# cDNA of human ETA receptor was obtained from mRNA of human lung by means of an RT-PCR and then transferred into pEF-BOS, a vector for expression, to prepare plasmid. The prepared plasmid was added to a culture of COS-1 cells (cell strain derived from renal cells of African green monkey) with DEAE-dextran and cDNA of human ETA was transfected to COS-1 cells. Then it was incubated for three days in a conventional DMEM (containing 10% of FBS) and the COS-1 cells recovered therefrom were suspended in a hypotonic buffer (10 mM Tris-HCl and 5 mM EDTA; pH 7.4) followed by homogenizing the cells using a Polytron. The suspension in which the cells were homogenized was subjected to an ultracentrifugation (100,000G for 30 minutes at 4° C.), the resulting precipitate (cell membrane fraction) was re-suspended in a Tris buffer (50 mM Tris-HCl and 10 mM MgCl2; pH 7.4) and the suspension was preserved by freezing at -80° C. (protein amount: about 1 mg/ml).
# In conducting the experiment of binding the receptor, the frozen cell membrane sample was melted and resuspended in an incubation buffer (50 mM Tris-HCl, 10 mM MgCl2 and 0.01% bovine serum albumin; pH 7.4). The membrane suspension (200 μl) containing 1.25 μg as a membrane protein, 25 μl of an incubation buffer containing a test compound in various concentrations and 25 μl of [^125 I] ET-1 (specific activity: 2,200 Ci/mM; final concentration: […]) were incubated together at 25° C. for three hours and then filtered through a glass fiber filter using a Brandel cell harvester. Measurement of radioactivity on the glass fiber filter was conducted by means of a gamma-counter (counting efficiency: 81%). Nonspecific binding was determined by the use of a test buffer containing 0.1 μM of ET-1. Inhibiting activity of the test compound to [^125 I] ET-1 was calculated as a concentration (IC50) necessary for inhibiting 50% of the specific binding.
# [3] = oral administration 30 minutes before pithing, dose shifting big ET-1 pressor dose-response curve two-fold to the right
# [4] = inhibition of [^125 I] ET-1 specific binding, COS-1 cell membranes expressing human ETA, pH 7.4, 25° C., three hours, read-out: IC50
Structure (SMILES),"IC50 [2, 4] [nM]",further results
"COc1ccccc1Oc1c(NS(=O)(=O)c2ccc(C(C)(C)C)cc2)nc(-c2ncccn2)nc1OCCO [Comparative Compound, Bosentan, reference compound]",–,"ED (2-fold shift) [1, 3]: 32 mg/kg"
"COc1ccccc1Oc1c(NS(=O)(=O)C=Cc2ccccc2)nc(-c2ncccn2)nc1OCCO [Example 1, potassium N-[6-(2-hydroxyethoxy)-5-(2-methoxyphenoxy)-2-(2-pyrimidinyl)-4-pyrimidinyl]-2-phenylethenesulfonamidate]",1.6,–
"COc1ccccc1Oc1c(NS(=O)(=O)C=Cc2ccccc2)nc(-c2ncccn2)nc1OC [Example 2, N-[6-methoxy-5-(2-methoxyphenoxy)-2-(2-pyrimidinyl)-4-pyrimidinyl]-2-phenylethenesulfonamide]",–,ED (2-fold shift) ([1]; po): 0.61 mg/kg; IC50 [2]: 3.1 nM
"COc1ccccc1Oc1c(NS(=O)(=O)C=Cc2ccccc2)nc(-c2ncccn2)nc1OCCF [Example 8, N-[6-(2-fluoroethoxy)-5-(2-methoxyphenoxy)-2-(2-pyrimidinyl)-4-pyrimidinyl]-2-phenylethenesulfonamide]",2.9,–
"COc1cc(OC)cc(-c2nc(NS(=O)(=O)C=Cc3ccccc3)c(Oc3ccccc3OC)c(OC)n2)c1 [Example 22, N-[2-(3,5-Dimethoxyphenyl)-6-methoxy-5-(2-methoxyphenoxy)-4-pyrimidinyl]-2-phenylethenesulfonamide]",9.5,–
"COc1ccccc1Oc1c(NS(=O)(=O)C=Cc2ccccc2)nc(-c2ccncc2)nc1OC [Example 27, N-[6-Methoxy-5-(2-methoxyphenoxy)-2-(4-pyridyl)-4-pyrimidinyl]-2-phenylethenesulfonamide]",5.9,–
"COc1ccccc1Oc1c(NS(=O)(=O)C=Cc2ccccc2)nc(-c2ccsc2)nc1OC [Example 32, N-[6-Methoxy-5-(2-methoxyphenoxy)-2-(3-thienyl)-4-pyrimidinyl]-2-phenylethenesulfonamide]",5.1,–
"COc1ccccc1Oc1c(NS(=O)(=O)C=Cc2ccccc2)nc(-c2csc(C)n2)nc1OC [Example 33, N-[6-Methoxy-5-(2-methoxyphenoxy)-2-(2-methyl-4-thiazolyl)-4-pyrimidinyl]-2-phenylethenesulfonamide]",7.7,–
"COc1ccccc1Oc1c(NS(=O)(=O)C=Cc2ccccc2)nc(-c2ccoc2)nc1OC [Example 34, N-[6-Methoxy-5-(2-methoxyphenoxy)-2-(3-furyl)-4-pyrimidinyl]-2-phenylethenesulfonamide]",9.7,–
"COc1ccccc1Oc1c(NS(=O)(=O)C(C)=Cc2ccccc2)nc(-c2ncccn2)nc1OC [Example 37, N-[6-Methoxy-5-(2-methoxyphenoxy)-2-(2-pyrimidinyl)-4-pyrimidinyl]-1-methyl-2-phenylethenesulfonamide]",1.6,–
"CCC(=Cc1ccccc1)S(=O)(=O)Nc1nc(-c2ncccn2)nc(OC)c1Oc1ccccc1OC.[K] [Example 38, Potassium N-[6-methoxy-5-(2-methoxyphenoxy)-2-(2pyrimidinyl)-4-pyrimidinyl]-1-ethyl-2-phenylethenesulfonamidate]",3.3,ED (2-fold shift) ([1]; po): 0.65 mg/kg

# Second part, led by results:
"IC50 [2, 4] [nM]",Structure (SMILES),further results
4.8,"COCCOc1nc(-c2ncccn2)nc(NS(=O)(=O)C=Cc2ccccc2)c1Oc1ccccc1OC [Example 6, N-[6-(2-Methoxyethoxy)-5-(2-methoxyphenoxy)-2-(2-pyrimidinyl)-4-pyrimidinyl]-2-phenylethenesulfonamide]",–
5.5,"C#CCOc1nc(-c2ncccn2)nc(NS(=O)(=O)C=Cc2ccccc2)c1Oc1ccccc1OC [Example 13, N-[6-(2-propynyloxy)-5-(2-methoxyphenoxy)-2-(2-pyrimidinyl)-4-pyrimidinyl]-2-phenylethenesulfonamide]",–
2.8,"COc1ccccc1Oc1c(NS(=O)(=O)C=Cc2ccc(C)cc2)nc(-c2ncccn2)nc1OC [Example 39, N-[6-Methoxy-5-(2-methoxyphenoxy)-2-(2-pyrimidinyl)-4-pyrimidinyl]-2-(4-methylphenyl)ethenesulfonamide]",–
1.5,"COc1ccccc1Oc1c(NS(=O)(=O)C=Cc2cccs2)nc(-c2ncccn2)nc1OC [Example 42, N-[6-Methoxy-5-(2-methoxyphenoxy)-2-(2-pyrimidinyl)-4-pyrimidinyl]-2-(2-thienyl)ethenesulfonamide]","ED (2-fold shift) [1, 3]: 1.85 mg/kg"
4.4,"COc1ccccc1Oc1c(NS(=O)(=O)C=Cc2ccc3ccccc3c2)nc(-c2ncccn2)nc1OC [Example 45, N-[6-Methoxy-5-(2-methoxyphenoxy)-2-(2-pyrimidinyl)-4-pyrimidinyl]-2-(2-naphthyl)ethenesulfonamide]",–
3,"COc1ccccc1Oc1c(NS(=O)(=O)C=Cc2ccccc2Cl)nc(-c2ncccn2)nc1OC [Example 47, N-[6-Methoxy-5-(2-methoxyphenoxy)-2-(2-pyrimidinyl)-4-pyrimidinyl]-2-(2-chlorophenyl)ethenesulfonamide]",–
